Earlier results on six compounds are cited in patent US10695378B2, “Direct reprogramming of cells to cardiac myocyte fate” (Duke University, priority 2010, dated 2020).

Assay in data set [1]: not given
The source holds these as a separate data set.

Another data set has as its system JAK1. The settings on record: small molecule inhibitors of JAK-1.
Assay in data set [2]: not given
This is another data set of the same source.

Data set [3] deals with TGFβ-induced epithelial-to-mesenchymal transition.

As to `CCCC(CCC)C(=O)O` [Valproic acid, 2-propylpentanoic acid], the therapeutic range (currently established therapeutic range) is 50 to 120 µg/mL. In addition, the “Serum or plasma valproic acid concentrations” value (during controlled therapy) was 20 to 100 mg/L.

`CC(C)(C)c1nc2c3ccc(F)cc3c3c(=O)[nH]ccc3c2[nH]1` [JAK inhibitor 1, 2-(1,1-Dimethylethyl)-9-fluoro-3,6-dihydro-7H-benz[h]-imidaz[4,5-f]isoquinolin-7-one]: the “phosphorylation of STATS” value in data set [1] is given as “blocks”. The “IC50 values (in words)” value with JAK1 is on record as “nanomolar range”.

As for `N#CC[C@H](C1CCCC1)n1cc(-c2ncnc3[nH]ccc23)cn1` [INCB018424], the “IC50 values (in words)” value with JAK1 is given as “nanomolar range”.

Turning to `O=C(O)C=C(CCc1ccc(Cl)cc1)c1ccccc1` [PS48, 5-(4-Chloro-phenyl)-3-phenyl-pent-2-enoic acid], the “soluble in DMSO” value in data set [2] was more than 20 mg/mL.

On to `O=C(O)C(Cc1c[nH]c2ccccc12)N1C(=O)c2ccccc2C1=O` (stereo not shown) [RG108, 2-(1,3-Dioxo-1,3-dihydro-2H-isoindol-2-yl)-3-(1H-indol-3-yl)propionic acid], for which, in the data set on human tumor cell line, the “doubling time in culture” value is on record as “increases” and the “human tumor cell line proliferation” value is “inhibit”.

With `Cc1cccc(-c2nn(C(=S)Nc3ccccc3)cc2-c2ccnc3ccccc23)n1` [A83-01, 3-(6-Methyl-2-pyridinyl)-N-phenyl-4-(4-quinolinyl)-1H-pyrazole-1-carbothioamide], the “phosphorylation of Smad2” value in the data set with Smad2 is on record as “blocks”. In addition, the TGFβ-induced epithelial-to-mesenchymal transition result in data set [3] is on record as “inhibits”.
